Experimental data as given in US9951088B2, “D2 receptor modulators and methods of use thereof in the treatment of diseases and disorders” (SUNOVION PHARMACEUTICALS INC., priority 2012, dated 2018).

Experiments:
[1] = molecular target: T1, long isoform of human D2 receptor (Homo sapiens, UniProt P14416); test: Arrestin Agonist Assay (DRD2L PathHunter CHO-K1 cells, β-arrestin recruitment); conditions: for Emax: CHO-K1, read-out: β-arrestin (agonist mode) Emax
Procedure: (§1) Cell Lines: Activities of the compounds were assessed using a Chinese Hamster Ovary (CHO—K1) cell line that recombinantly expressed the long isoform of human D2 receptor (DRD2L PathHunter cells). The D2 receptor DNA sequence was modified to contain a “ProLink” at its C-terminus which allowed complementation with an “enzyme acceptor” (EA)-tagged β-arrestin protein. The recruitment of the O-arrestin by the D2 receptor led to complementation of the ProLink and EA and formation of active β-galactosidase which generated a D2-specific signal that was measured.
Arrestin Agonist Assay: One day prior to testing, a vial of high density stock of DRD2L PathHunter cells was thawed, and 1×10^7 cells diluted into 40 mL of growth media (Ham's F12/10% HI FBS/1% PSG). 20 μL cells per well were seeded directly into assay plates, and the plates were allowed to rest for 1 h at RT before incubating in a plate incubator overnight.
5 μL diluted compound was added to cells in each well, and the assay plate was incubated for 90 min at 37° C. 12.5 μL PathHunter detection reagent was added to each well of the assay plate, which was then covered and incubated for 1 h at RT. The plate was read on an Envision reader using the Luminescence protocol, and the data were exported for analysis.
(§2) The agonist Emax results were expressed as a percent of the dopamine control response ((measured specific response/control specific agonist response)×100) obtained in the presence of test article. The EC50 values (concentration producing a half-maximal specific response) were determined by non-linear regression analysis of the concentration-response curves.

[2] = molecular target: T1, long isoform of human D2 receptor; test: Arrestin Antagonist Assay (DRD2L PathHunter CHO-K1 cells, vs EC80 dopamine); conditions: for Emax: CHO-K1, read-out: β-arrestin (antagonist mode) Imax
Procedure: as §1
Arrestin Antagonist Assay: One day prior to testing, a vial of high density stock of DRD2L PathHunter cells was thawed, and 1×10^7 cells diluted into 40 mL of growth media (Ham's F12/10% HI FBS/1% PSG). 20 μL cells per well were seeded directly into assay plates, and the plates were allowed to rest for 1 h at RT before incubating in a plate incubator overnight.
The plate was incubated for 30 min at 37° C. 15 μL PathHunter detection reagent was added to each well of the assay plate, which was then covered and incubated for 1 h at RT. The plate was read on an Envision reader using the Luminescence protocol, and the data were exported for analysis.
The IC50 values (concentration producing a half-maximal inhibitory response) were determined by non-linear regression analysis of the concentration-response curves.

[3] = molecular target: T1, long isoform of human D2 receptor; test: cAMP HTRF Agonist Assay (DRD2L PathHunter CHO-K1 cells, forskolin-stimulated); conditions: for Emax: CHO-K1, read-out: cAMP (agonist mode) Emax
Procedure: Cell Lines: Activities of the compounds were assessed using a Chinese Hamster Ovary (CHO—K1) cell line that recombinantly expressed the long isoform of human D2 receptor (DRD2L PathHunter cells). The D2 receptor DNA sequence was modified to contain a “ProLink” at its C-terminus which allowed complementation with an “enzyme acceptor” (EA)-tagged β-arrestin protein. The recruitment of the O-arrestin by the D2 receptor led to complementation of the ProLink and EA and formation of active β-galactosidase which generated a D2-specific signal that was measured. The cAMP assay was measured in the same D2-expressing cell line. The D2 receptor inhibited cAMP formation so that the basal levels of cAMP were increased by the addition of an adenylate cyclase stimulator, forskolin.
cAMP HTRF Agonist Assay: Two days prior to testing, a vial of high density stock of DRD2L PathHunter cells was thawed, and cells were diluted into 10 mL of growth media (Ham's F12/10% HI FBS/1% PSG) and used to seed a T225 flask containing 50 mL of growth media. Cells were cultured for 2 days.
On the day of the assay, cells were dissociated in 5 mL cell dissociation buffer (enzyme free—Invitrogen) for 10-15 minutes at 37° C. Dissociated cells were diluted with 10 mL of growth media and counted. Cell counts were routinely ˜2×10^7 per T225. Cells were then pelleted at 1500 rpm for 5 min. Supernatant was aspirated, and cells were re-suspended in HBSS/20 mM Hepes, pH 7.4 to a cell density of 1×10^6/mL.
cAMP levels were determined using the Cisbio HTRF method. HRTF reagents (cAMP-HTRF acceptor fluorophore (d2) conjugate and cryptate-labeled anti-cAMP antibody) were prepared according to maunfacturers instructions. 5 μL of each were added to each well of an assay plate and incubated for 1 h at RT. The plate was then read on an Envision reader using the HTRF protocol, and data were exported for analysis.
as §2

T1 sequence (P14416 whole entry, canonical isoform): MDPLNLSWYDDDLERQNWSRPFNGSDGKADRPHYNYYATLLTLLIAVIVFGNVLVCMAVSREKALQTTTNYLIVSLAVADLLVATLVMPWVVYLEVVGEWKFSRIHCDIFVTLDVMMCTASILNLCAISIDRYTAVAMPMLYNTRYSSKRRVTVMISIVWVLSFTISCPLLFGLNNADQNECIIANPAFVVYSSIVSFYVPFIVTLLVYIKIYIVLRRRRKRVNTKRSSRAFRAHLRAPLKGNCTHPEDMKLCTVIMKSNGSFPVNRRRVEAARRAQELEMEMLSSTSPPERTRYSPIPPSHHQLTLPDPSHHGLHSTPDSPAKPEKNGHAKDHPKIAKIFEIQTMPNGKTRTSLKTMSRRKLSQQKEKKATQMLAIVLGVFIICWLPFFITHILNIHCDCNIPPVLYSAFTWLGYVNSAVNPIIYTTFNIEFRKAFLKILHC

| Compound | EC50 [1] | Emax [1] | IC50 [2] | Emax [2] | IC50 [3] | Emax [3] |
| --- | --- | --- | --- | --- | --- | --- |
| O=C1CCc2ccc(OCCCCN3CCc4ccccc4C3)nc2N1 [Compound 68, 7-(4-(3,4-dihydroisoquinolin-2(1H)-yl)butoxy)-3,4-dihydro-1,8-naphthyridin-2(1H)-one] | > 10000 nM | < 10% | 10 to 100 nM | > 75% | < 10 nM | 25 to 50% |
| c1ccc2c(N3CCN(CCCCOc4ccc5cn[nH]c5c4)CC3)cccc2c1 [Compound 92, 6-(4-(4-(naphthalen-1-yl)piperazin-1-yl)butoxy)-1H-indazole] | < 10 nM | 25 to 50% | 10 to 100 nM | 50 to 75% | 10 to 100 nM | 25 to 50% |
| Cn1cc2c(n1)CCN(CCCCOc1ccc3c(c1)NC(=O)CC3)C2 [Compound 24, 7-(4-(2-methyl-6,7-dihydro-2H-pyrazolo[4,3-c]pyridin-5(4H)-yl)butoxy)-3,4-dihydroquinolin-2(1H)-one] | 100 to 1000 nM | 25 to 50% | 1000 to 10000 nM | 25 to 50% | 10 to 100 nM | > 75% |
| COc1cccnc1N1CCN(CCCCOc2ccc3cn[nH]c3c2)CC1 [Compound 99, 6-(4-(4-(3-methoxypyridin-2-yl)piperazin-1-yl)butoxy)-1H-indazole] | < 10 nM | 10 to 25% | 10 to 100 nM | > 75% | < 10 nM | 25 to 50% |
| CC(=O)Nc1cccc(OCCCCN2CCc3ccccc3C2)n1 [Compound 40, N-(6-(4-(3,4-dihydroisoquinolin-2(1H)-yl)butoxy)pyridin-2-yl)acetamide] | > 10000 nM | < 10% | 100 to 1000 nM | > 75% | > 10000 nM | < 10% |
| Clc1cccc(N2CCN(CCCCOc3ccc4cn[nH]c4c3)CC2)c1 [Compound 98, 6-(4-(4-(3-chlorophenyl)piperazin-1-yl)butoxy)-1H-indazole] | 10 to 100 nM | 25 to 50% | 100 to 1000 nM | 25 to 50% | 10 to 100 nM | 50 to 75% |
| N#Cc1cccnc1N1CCN(CCCCOc2cccc(-c3cc[nH]n3)n2)CC1 [Compound 48, 2-(4-(4-((6-(1H-pyrazol-3-yl)pyridin-2-yl)oxy)butyl)piperazin-1-yl)nicotinonitrile] | < 10 nM | 25 to 50% | 10 to 100 nM | 25 to 50% | < 10 nM | > 75% |
| COc1ccc2c(c1)CCN(CCCCOc1ccc3ccc(=O)[nH]c3n1)C2 [Compound 55, 7-(4-(6-methoxy-3,4-dihydroisoquinolin-2(1H)-yl)butoxy)-1,8-naphthyridin-2(1H)-one] | < 10 nM | 10 to 25% | < 10 nM | > 75% | < 10 nM | 25 to 50% |
| O=c1ccc2ccc(OCCCCN3CCc4nn(-c5ccccn5)cc4C3)nc2[nH]1 [Compound 67, 7-(4-(2-(pyridin-2-yl)-6,7-dihydro-2H-pyrazolo[4,3-c]pyridin-5(4H)-yl)butoxy)-1,8-naphthyridin-2(1H)-one] | > 10000 nM | < 10% | 100 to 1000 nM | > 75% | 10 to 100 nM | 10 to 25% |
| Oc1cccc2ccc(OCCCCN3CCc4c(Cl)cccc4C3)nc12 [Compound 20, 2-(4-(5-chloro-3,4-dihydroisoquinolin-2(1H)-yl)butoxy)quinolin-8-ol] | 100 to 1000 nM | > 75% | > 10000 nM | < 10% | 10 to 100 nM | 50 to 75% |
| Clc1ccccc1N1CCN(CCCCOc2cccc(-c3cc[nH]n3)n2)CC1 [Compound 50, 1-(4-((6-(1H-pyrazol-3-yl)pyridin-2-yl)oxy)butyl)-4-(2-chlorophenyl)piperazine] | < 10 nM | 25 to 50% | < 10 nM | 50 to 75% | < 10 nM | 50 to 75% |
| CCS(=O)(=O)Nc1cccc(OCCCCN2CCc3ccccc3C2)n1 [Compound 43, N-(6-(4-(3,4-dihydroisoquinolin-2(1H)-yl)butoxy)pyridin-2-yl)-ethanesulfonamide] | > 10000 nM | < 10% | 100 to 1000 nM | > 75% | > 10000 nM | < 10% |
| CCC(=O)Nc1cccc(OCCCCN2CCc3ccccc3C2)n1 [Compound 41, N-(6-(4-(3,4-dihydroisoquinolin-2(1H)-yl)butoxy)pyridin-2-yl)-propionamide] | > 10000 nM | < 10% | 100 to 1000 nM | > 75% | > 10000 nM | < 10% |
| Oc1cccc2ccc(OCCCCN3CCc4ccsc4C3)nc12 [Compound 19, 2-(4-(4,5-dihydrothieno[2,3-c]pyridin-6(7H)-yl)butoxy)quinolin-8-ol] | > 10000 nM | < 10% | 1000 to 10000 nM | > 75% | > 10000 nM | < 10% |
| O=C1CCc2ccc(OCCCCN3CCc4c(cnn4-c4cccc(Cl)c4)C3)cc2N1 [Compound 32, 7-(4-(1-(3-chlorophenyl)-6,7-dihydro-1H-pyrazolo[4,3-c]pyridin-5(4H)-yl)butoxy)-3,4-dihydroquinolin-2(1H)-one] | > 10000 nM | < 10% | < 10 nM | > 75% | > 10000 nM | < 10% |
| O=c1ccc2ccc(OCCCCN3CCc4cc(F)ccc4C3)nc2[nH]1 [Compound 56, 7-(4-(6-fluoro-3,4-dihydroisoquinolin-2(1H)-yl)butoxy)-1,8-naphthyridin-2(1H)-one] | > 10000 nM | < 10% | < 10 nM | > 75% | > 10000 nM | < 10% |
| Cc1cccc(N2CCN(CCCCOc3ccc4cn[nH]c4n3)CC2)c1C [Compound 3, 6-(4-(4-(2,3-dimethylphenyl)piperazin-1-yl)butoxy)-1H-pyrazolo[3,4-b]pyridine] | > 10000 nM | < 10% | 100 to 1000 nM | > 75% | 10 to 100 nM | 10 to 25% |
| c1ccc(N2CCN(CCCCOc3ccc4cn[nH]c4c3)CC2)nc1 [Compound 94, 6-(4-(4-(pyridin-2-yl)piperazin-1-yl)butoxy)-1H-indazole] | < 10 nM | > 75% | > 10000 nM | < 10% | < 10 nM | > 75% |
| CCOc1cccnc1N1CCN(CCCCOc2ccc3cccc(O)c3n2)CC1 [Compound 10, 2-(4-(4-(3-ethoxypyridin-2-yl)piperazin-1-yl)butoxy)quinolin-8-ol] | < 10 nM | 10 to 25% | 10 to 100 nM | > 75% | < 10 nM | 25 to 50% |
| O=C1CCc2ccc(OCCCCN3CCc4ccccc4C3)cc2N1 [Compound 91, 7-(4-(3,4-dihydroisoquinolin-2(1H)-yl)butoxy)-3,4-dihydroquinolin-2(1H)-one] | < 10 nM | 10 to 25% | 10 to 100 nM | > 75% | < 10 nM | 25 to 50% |
| O=c1ccc2ccc(OCCCCN3CCc4sccc4C3)nc2[nH]1 [Compound 53, 7-(4-(6,7-dihydrothieno[3,2-c]pyridin-5(4H)-yl)butoxy)-1,8-naphthyridin-2(1H)-one] | > 10000 nM | < 10% | 10 to 100 nM | > 75% | < 10 nM | 10 to 25% |
| Oc1cccc2ccc(OCCCCN3CCc4cc(Cl)ccc4C3)nc12 [Compound 14, 2-(4-(6-chloro-3,4-dihydroisoquinolin-2(1H)-yl)butoxy)quinolin-8-ol] | > 10000 nM | < 10% | 1000 to 10000 nM | > 75% | > 10000 nM | < 10% |
| O=C1CCc2ccc(OCCCCN3CCc4cc(Cl)ccc4C3)nc2N1 [Compound 75, 7-(4-(6-chloro-3,4-dihydroisoquinolin-2(1H)-yl)butoxy)-3,4-dihydro-1,8-naphthyridin-2(1H)-one] | > 10000 nM | < 10% | 10 to 100 nM | > 75% | < 10 nM | 10 to 25% |
| Cc1ccc2c(c1)CN(CCCCOc1ccc3c(n1)NC(=O)CC3)CC2 [Compound 81, 7-(4-(7-methyl-3,4-dihydroisoquinolin-2(1H)-yl)butoxy)-3,4-dihydro-1,8-naphthyridin-2(1H)-one] | > 10000 nM | < 10% | 10 to 100 nM | > 75% | > 10000 nM | < 10% |
| Oc1cccc2ccc(OCCCCN3CCc4cc(C(F)(F)F)ccc4C3)nc12 [Compound 17, 2-(4-(6-(trifluoromethyl)-3,4-dihydroisoquinolin-2(1H)-yl)butoxy)quinolin-8-ol] | > 10000 nM | < 10% | 1000 to 10000 nM | > 75% | > 10000 nM | < 10% |
| N#Cc1cccc2c1CCN(CCCCOc1ccc3ccc(=O)[nH]c3n1)C2 [Compound 62, 2-(4-((7-oxo-7,8-dihydro-1,8-naphthyridin-2-yl)oxy)butyl)-1,2,3,4-tetrahydroisoquinoline-5-carbonitrile] | < 10 nM | 50 to 75% | > 10000 nM | < 10% | < 10 nM | > 75% |
| O=c1ccc2ccc(OCCCCN3CCc4cc(C(F)(F)F)ccc4C3)nc2[nH]1 [Compound 58, 7-(4-(6-(trifluoromethyl)-3,4-dihydroisoquinolin-2(1H)-yl)butoxy)-1,8-naphthyridin-2(1H)-one] | < 10 nM | 10 to 25% | 10 to 100 nM | > 75% | < 10 nM | 25 to 50% |
